Experimental data reported in paper PMC9299836 (eLife, 2022).
Where “and” joins values, the source holds several entries; their conditions need not be identical. Identical values can stand only once. Like-named read-outs stand apart in the source and are kept apart here.

Experiments:
mGluR2 [1] = target: mGluR2 (Mus musculus, UniProt Q14BI2, A548F); assay: Live-cell FRET, azi-CRD (cysteine-rich domain) sensor in HEK293T cells; settings: for Normalized FRET response, Mean (azi-CRD agonist DRC): maximal responses normalized to 1mM glutamate
mGluR2 [2] = target: mGluR2 (Mus musculus, UniProt Q14BI2, INS715F); assay: Live-cell FRET, azi-ECL2 (7TM domain, extracellular loop 2) sensor in HEK293T cells;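 also: Cy3/Cy5 click-labeled sensor, whole-membrane ROIs per cell, apparent FRET after bleed-through correction, ΔFRET as treatment minus pre-treatment signal, at room temperature, at least three biological replicates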
mGluR2 [3] = target: T1, mGluR2 (Mus musculus, UniProt Q14BI2); assay: Live-cell FRET, SNAP-m2 (VFT domain) inter-subunit sensor in HEK293T cells; settings: for Normalized FRET response, Mean (SNAP-m2 agonist DRC): maximal responses normalized to 1mM glutamate;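 as to all read-outs here: apparent FRET efficiency from whole-membrane ROIs of single cells, corrected for donor bleed-through and background, ΔFRET as treatment minus pretreatment signal, recorded at room temperature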
mGluR2 [4] = target: T1, mGluR2; assay: Functional calcium imaging, SNAP-mGluR2 (no FLAG-tag) with chimeric G protein Gqo5 in HEK293T cells; format: cell-based; set-up: Full length mGluR2 construct with an amber codon (TAG) mutation of amino acid A548 (azi-CRD) or N-terminal SNAP-tag (SNAP-mGluR2); host or cells: HEK293T; settings: for Intracellular Ca2+ response, Mean / Intracellular Ca2+ response: normalized to 1mM glutamate; for Intracellular Ca2+ response: single experiments

mGluR2 (Mus musculus, UniProt Q14BI2, A548F), sequence (Q14BI2 19-872 A548F): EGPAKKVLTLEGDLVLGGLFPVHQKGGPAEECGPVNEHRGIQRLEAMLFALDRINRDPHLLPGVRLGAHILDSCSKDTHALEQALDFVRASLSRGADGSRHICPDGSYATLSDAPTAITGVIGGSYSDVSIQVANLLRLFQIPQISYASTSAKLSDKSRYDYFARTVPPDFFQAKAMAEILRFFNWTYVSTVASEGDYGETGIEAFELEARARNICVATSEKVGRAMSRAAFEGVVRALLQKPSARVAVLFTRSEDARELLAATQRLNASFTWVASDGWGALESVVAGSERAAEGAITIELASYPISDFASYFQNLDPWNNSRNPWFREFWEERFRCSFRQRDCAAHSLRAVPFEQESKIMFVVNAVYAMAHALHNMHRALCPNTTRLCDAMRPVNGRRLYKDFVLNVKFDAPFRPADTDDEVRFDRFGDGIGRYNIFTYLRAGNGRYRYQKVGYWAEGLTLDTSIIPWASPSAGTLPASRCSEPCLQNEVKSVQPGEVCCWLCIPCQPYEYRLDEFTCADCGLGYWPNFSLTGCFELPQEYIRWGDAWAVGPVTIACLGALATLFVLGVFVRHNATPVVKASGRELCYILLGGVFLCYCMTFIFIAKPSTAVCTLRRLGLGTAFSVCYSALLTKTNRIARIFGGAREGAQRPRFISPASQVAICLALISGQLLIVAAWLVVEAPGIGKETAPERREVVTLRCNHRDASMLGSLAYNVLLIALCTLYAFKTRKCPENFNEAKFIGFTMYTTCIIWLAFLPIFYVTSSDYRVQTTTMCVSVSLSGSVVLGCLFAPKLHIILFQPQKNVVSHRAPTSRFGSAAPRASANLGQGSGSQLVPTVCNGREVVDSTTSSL
mGluR2 (Mus musculus, UniProt Q14BI2, INS715F), sequence (Q14BI2 with tags, fused parts or gaps INS715F): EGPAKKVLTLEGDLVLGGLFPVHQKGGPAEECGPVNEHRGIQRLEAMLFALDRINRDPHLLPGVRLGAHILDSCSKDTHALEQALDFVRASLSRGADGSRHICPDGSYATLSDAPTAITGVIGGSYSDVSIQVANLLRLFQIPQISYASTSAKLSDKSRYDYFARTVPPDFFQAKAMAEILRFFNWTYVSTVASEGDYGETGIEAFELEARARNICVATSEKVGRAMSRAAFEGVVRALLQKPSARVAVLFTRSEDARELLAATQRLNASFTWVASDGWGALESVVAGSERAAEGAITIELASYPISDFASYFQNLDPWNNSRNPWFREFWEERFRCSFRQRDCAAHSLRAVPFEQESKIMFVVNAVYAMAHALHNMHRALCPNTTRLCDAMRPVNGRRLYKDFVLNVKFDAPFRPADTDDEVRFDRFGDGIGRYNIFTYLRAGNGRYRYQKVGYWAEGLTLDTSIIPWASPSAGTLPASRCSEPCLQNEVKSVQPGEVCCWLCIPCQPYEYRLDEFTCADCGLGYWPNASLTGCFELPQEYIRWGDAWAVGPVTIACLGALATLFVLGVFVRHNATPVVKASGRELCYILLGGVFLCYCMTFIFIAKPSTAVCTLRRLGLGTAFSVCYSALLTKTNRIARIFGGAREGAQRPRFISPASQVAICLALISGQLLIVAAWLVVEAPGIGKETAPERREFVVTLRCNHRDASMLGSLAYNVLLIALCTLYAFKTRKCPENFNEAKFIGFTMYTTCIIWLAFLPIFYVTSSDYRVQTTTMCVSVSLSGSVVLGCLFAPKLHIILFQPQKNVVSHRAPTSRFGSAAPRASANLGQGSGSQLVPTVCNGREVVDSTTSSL
T1 sequence (Q14BI2 19-872): as the sequence (Q14BI2 19-872 A548F) above, with F530A counted along it

SMILES: N[C@H](C(=O)O)C1[C@@H](C(=O)O)[C@@H]1C(=O)O (some centres unmarked) [DCG-IV]
- efficacy relative to glutamate efficacy (mGluR2 [1]; CRD sensor): 69%
- Hill slope (mGluR2 [1]; azi-CRD sensor, orthosteric agonist alone): 0.94
- Live-cell FRET max response normalized to 1mM glutamate (mGluR2 [1]; azi-CRD sensor, DCG-IV, individual values (N=19)): 0.7559 and 0.727 and 0.7189 and 0.7035 and 0.632 and 0.6169 and 0.7378 and 0.6793 and 0.6073 and 0.6642 and 0.7117 and 0.7276 and 0.6566 and 0.7993 and 0.7099 and 0.6625 and 0.714 and 0.6368 and 0.7062
- Mean max response (normalized max ΔFRET) (mGluR2 [1]; azi-CRD, agonist alone (1 mM glutamate, 100 μM DCG-IV, 20 μM LY379268, 100 μM APDC), normalized to 1 mM glutamate): 0.69
- Normalized Max ΔFRET (mGluR2 [1]; azi-CRD, 100μM agonist, individual cells, normalized to 1mM glutamate): 66.2522 and 61.6858 and 73.7778 and 67.9245 and 60.7306 and 66.4234 and 71.1688 and 72.7619 and 65.6646 and 79.932 and 70.9877 and 71.4032 and 63.6793 and 70.615 and 75.5857 and 72.6994 and 71.8894 and 70.347 and 63.2035
- Normalized Max ΔFRET, Mean (mGluR2 [1]; azi-CRD, 100μM agonist, mean of cells, normalized to 1mM glutamate): 69.3017
- Normalized FRET response, Mean (azi-CRD agonist DRC) (mGluR2 [1]; log[ligand] (M) -4): 0.693
- Normalized FRET response, Mean (azi-CRD agonist DRC) (mGluR2 [1]; log[ligand] (M) -4.1549): 0.638
- Normalized FRET response, Mean (azi-CRD agonist DRC) (mGluR2 [1]; log[ligand] (M) -4.52288): 0.594
- Normalized FRET response, Mean (azi-CRD agonist DRC) (mGluR2 [1]; log[ligand] (M) -5): 0.6438
- Normalized FRET response, Mean (azi-CRD agonist DRC) (mGluR2 [1]; log[ligand] (M) -5.39794): 0.5492
- Normalized FRET response, Mean (azi-CRD agonist DRC) (mGluR2 [1]; log[ligand] (M) -5.82391): 0.4312
- Normalized FRET response, Mean (azi-CRD agonist DRC) (mGluR2 [1]; log[ligand] (M) -6): 0.3274
- Normalized FRET response, Mean (azi-CRD agonist DRC) (mGluR2 [1]; log[ligand] (M) -6.52288): 0.164
- Normalized FRET response, Mean (azi-CRD agonist DRC) (mGluR2 [1]; log[ligand] (M) -7): 0.06087
- Normalized FRET response, Mean (azi-CRD agonist DRC) (mGluR2 [1]; log[ligand] (M) -8): 0
- EC50 (mGluR2 [1]; read-out: Live-cell FRET titration EC50, azi-CRD, agonist alone, individual experiments): 1530 nM and 1470 nM and 783 nM and 580 nM and 528 nM and 523 nM and 890 nM and 1360 nM and 1600 nM and 2080 nM
- EC50 (mGluR2 [1]; read-out: Mean half-maximum effective concentration (EC50), azi-CRD sensor, orthosteric agonist alone): 1100 nM
- efficacy relative to glutamate efficacy (mGluR2 [2]; ECL2 sensor): 64%
- Mean max response (normalized max ΔFRET) (mGluR2 [2]; azi-ECL2, agonist alone (1 mM glutamate, 100 μM DCG-IV, 20 μM LY379268, 100 μM APDC), normalized to 1 mM glutamate): 0.64
- Normalized ΔFRET response, Mean (agonist DRC) (mGluR2 [2]; azi-ECL2, log[agonist] (M) -4, normalized to 1 mM glutamate): 0.6388
- Normalized ΔFRET response, Mean (agonist DRC) (mGluR2 [2]; azi-ECL2, log[agonist] (M) -4.52288, normalized to 1 mM glutamate): 0.6117
- Normalized ΔFRET response, Mean (agonist DRC) (mGluR2 [2]; azi-ECL2, log[agonist] (M) -5, normalized to 1 mM glutamate): 0.5883
- Normalized ΔFRET response, Mean (agonist DRC) (mGluR2 [2]; azi-ECL2, log[agonist] (M) -5.39794, normalized to 1 mM glutamate): 0.5288
- Normalized ΔFRET response, Mean (agonist DRC) (mGluR2 [2]; azi-ECL2, log[agonist] (M) -5.82391, normalized to 1 mM glutamate): 0.4325
- Normalized ΔFRET response, Mean (agonist DRC) (mGluR2 [2]; azi-ECL2, log[agonist] (M) -6.09691, normalized to 1 mM glutamate): 0.3472
- Normalized ΔFRET response, Mean (agonist DRC) (mGluR2 [2]; azi-ECL2, log[agonist] (M) -6.52288, normalized to 1 mM glutamate): 0.1978
- Normalized ΔFRET response, Mean (agonist DRC) (mGluR2 [2]; azi-ECL2, log[agonist] (M) -7, normalized to 1 mM glutamate): 0.04555
- Normalized ΔFRET response, Mean (agonist DRC) (mGluR2 [2]; azi-ECL2, log[agonist] (M) -7.30103, normalized to 1 mM glutamate): 0.01237
- Normalized ΔFRET response, Mean (agonist DRC) (mGluR2 [2]; azi-ECL2, log[agonist] (M) -7.69897, normalized to 1 mM glutamate): 0
- Normalized Max ΔFRET (mGluR2 [2]; azi-ECL2, 100μM agonist, individual cells, normalized to 1mM glutamate): 75.6239 and 62.1009 and 89.9691 and 84.6273 and 55.3373 and 55.3387 and 55.3355 and 62.696 and 49.3687 and 57.2855 and 56.6756 and 63.6013 and 56.6982 and 53.3737 and 53.7969 and 61.9848 and 59.9837 and 58.1516 and 63.6225 and 66.6797 and 61.402 and 83.697 and 67.4032 and 68.3214 and 74.0066
- Normalized Max ΔFRET, Mean (mGluR2 [2]; azi-ECL2, 100μM agonist, mean of cells, normalized to 1mM glutamate): 63.8832
- Hill slope (mGluR2 [2]; azi-ECL2 sensor, orthosteric agonist alone): 1.05
- Live-cell FRET max response normalized to 1mM glutamate (mGluR2 [2]; azi-ECL2 sensor, DCG-IV, individual values (N=25)): 0.614 and 0.837 and 0.674 and 0.6832 and 0.7401 and 0.621 and 0.8997 and 0.8463 and 0.5534 (3×) and 0.627 and 0.4937 and 0.5728 and 0.5668 and 0.567 and 0.5337 and 0.538 and 0.6199 and 0.5998 and 0.5815 and 0.7562 and 0.636 and 0.6362 and 0.6668
- EC50 (mGluR2 [2]; read-out: EC50, live-cell FRET titration, azi-ECL2 sensor, DCG-IV, individual cell values (N=24)): 407 nM and 1580 nM and 2080 nM and 2050 nM and 1660 nM and 1520 nM and 1840 nM and 2020 nM and 1160 nM and 2070 nM and 563 nM and 325 nM and 399 nM and 405 nM and 280 nM and 445 nM and 366 nM and 629 nM and 300 nM and 459 nM and 417 nM and 327 nM and 390 nM and 398 nM
- EC50 (mGluR2 [2]; read-out: Mean half-maximum effective concentration (EC50), azi-ECL2 sensor, orthosteric agonist alone): 900 nM
- Mean max response (normalized max ΔFRET) (mGluR2 [3]; SNAP-m2 (VFT), agonist alone (1 mM glutamate, 100 μM DCG-IV, 20 μM LY379268, 100 μM APDC), normalized to 1 mM glutamate): 0.79
- Normalized Max ΔFRET (mGluR2 [3]; SNAP-m2, 100μM agonist, individual cells, normalized to 1mM glutamate): 84.7663 and 70.8926 and 74.3888 and 73.8095 and 75.8105 and 75.3951 and 75.9881 and 74.211 and 74.4971 and 73.9262 and 75.3591 and 85.075 and 75.8448 and 76.6206 and 81.7136 and 78.0427 and 77.2768 and 74.1653 and 84.8254 and 80.7786 and 86.2145 and 83.3004 and 84.7137 and 86.1165 and 84.7264
- Normalized Max ΔFRET, Mean (mGluR2 [3]; SNAP-m2, 100μM agonist, mean of cells, normalized to 1mM glutamate): 78.7384
- Hill slope (mGluR2 [3]; SNAP-m2 sensor, orthosteric agonist alone): –1.26
- Live-cell FRET max response normalized to 1mM glutamate (mGluR2 [3]; SNAP-m2 sensor, DCG-IV, individual values (N=25)): 0.8621 and 0.833 and 0.8471 and 0.8612 and 0.8473 and 0.7089 and 0.7439 and 0.7381 and 0.7581 and 0.754 and 0.7599 and 0.7421 and 0.745 and 0.7393 and 0.7536 and 0.7584 and 0.7662 and 0.8171 and 0.7804 and 0.7728 and 0.7417 and 0.8477 and 0.8508 and 0.8482 and 0.8078
- efficacy relative to glutamate efficacy (mGluR2 [3]; VFT domain FRET sensor): 79%
- Normalized FRET response, Mean (SNAP-m2 agonist DRC) (mGluR2 [3]; log[ligand] (M) -4): -0.7874
- Normalized FRET response, Mean (SNAP-m2 agonist DRC) (mGluR2 [3]; log[ligand] (M) -4.52288): -0.8342
- Normalized FRET response, Mean (SNAP-m2 agonist DRC) (mGluR2 [3]; log[ligand] (M) -5): -0.8388
- Normalized FRET response, Mean (SNAP-m2 agonist DRC) (mGluR2 [3]; log[ligand] (M) -5.39794): -0.8023
- Normalized FRET response, Mean (SNAP-m2 agonist DRC) (mGluR2 [3]; log[ligand] (M) -5.82391): -0.7016
- Normalized FRET response, Mean (SNAP-m2 agonist DRC) (mGluR2 [3]; log[ligand] (M) -6.09691): -0.5309
- Normalized FRET response, Mean (SNAP-m2 agonist DRC) (mGluR2 [3]; log[ligand] (M) -6.52288): -0.3457
- Normalized FRET response, Mean (SNAP-m2 agonist DRC) (mGluR2 [3]; log[ligand] (M) -7): -0.1181
- Normalized FRET response, Mean (SNAP-m2 agonist DRC) (mGluR2 [3]; log[ligand] (M) -7.30103): -0.04846
- Normalized FRET response, Mean (SNAP-m2 agonist DRC) (mGluR2 [3]; log[ligand] (M) -7.69897): 0
- EC50 (mGluR2 [3]; read-out: Live-cell FRET titration EC50, SNAP-m2, agonist alone, individual experiments): 601 nM and 624 nM and 283 nM and 314 nM and 294 nM and 323 nM
- EC50 (mGluR2 [3]; read-out: Mean half-maximum effective concentration (EC50), SNAP-m2 sensor, orthosteric agonist alone): 400 nM
- Normalized Max Intracellular Ca2+ Response, individual experiments (mGluR2 [4]; 100 μM DCG-IV, 10 μM LY379268, 300 μM APDC, normalized to 1 mM glutamate, single replicate): 0.684 and 0.6918 and 0.7087
- Normalized Max Intracellular Ca2+ Response, mean (mGluR2 [4]; 1 mM Glu, 100 μM DCG-IV, 10 μM LY379268, 300 μM APDC, normalized to 1 mM glutamate): 0.6948
- efficacy relative to glutamate efficacy (mGluR2 [4]; functional calcium imaging assay): 69%
- Intracellular Ca2+ response, Mean (mGluR2 [4]; log[agonist] (M) -4): 0.6948
- Intracellular Ca2+ response (mGluR2 [4]; log[agonist] (M) -4): 0.6948
- Intracellular Ca2+ response, Mean (mGluR2 [4]; log[agonist] (M) -4.52288): 0.7042
- Intracellular Ca2+ response (mGluR2 [4]; log[agonist] (M) -4.52288): 0.7332 and 0.6724 and 0.7069
- Intracellular Ca2+ response, Mean (mGluR2 [4]; log[agonist] (M) -5): 0.632
- Intracellular Ca2+ response (mGluR2 [4]; log[agonist] (M) -5): 0.631 and 0.6318 and 0.6332
- Intracellular Ca2+ response, Mean (mGluR2 [4]; log[agonist] (M) -5.39794): 0.5754
- Intracellular Ca2+ response (mGluR2 [4]; log[agonist] (M) -5.39794): 0.5417 and 0.5882 and 0.5962
- Intracellular Ca2+ response, Mean (mGluR2 [4]; log[agonist] (M) -5.82391): 0.3655
- Intracellular Ca2+ response (mGluR2 [4]; log[agonist] (M) -5.82391): 0.2777 and 0.362 and 0.4567
- Intracellular Ca2+ response, Mean (mGluR2 [4]; log[agonist] (M) -6): 0.3093
- Intracellular Ca2+ response (mGluR2 [4]; log[agonist] (M) -6): 0.2196 and 0.3072 and 0.4011
- Intracellular Ca2+ response, Mean (mGluR2 [4]; log[agonist] (M) -6.52288): 0.06286
- Intracellular Ca2+ response, Mean (mGluR2 [4]; log[agonist] (M) -7): 0
- Intracellular Ca2+ response (mGluR2 [4]; log[agonist] (M) -7): 0
- Intracellular Ca2+ response, Mean (mGluR2 [4]; log[agonist] (M) -8): 0
- Intracellular Ca2+ response (mGluR2 [4]; log[agonist] (M) -8): 0
